Experiments:
[1] = tested on: rabbit serum obtained by immunizing a rabbit with the SARS-CoV strain Frankfurt 1; type: binding; parameters: Binding of a rabbit serum to linear peptides / Binding of a rabbit serum to looped peptides / Rabbit serum linear peptides / Rabbit serum looped peptides / Binding of a rabbit serum to linear peptides of protein N of SARS-CoV Urbani (Rabbit serum linear peptides) / Binding of a rabbit serum to looped/cyclic peptides of protein N of SARS-CoV Urbani (Rabbit serum looped peptides): unit not given here
[2] = tested on: control sera (pooled serum of ten healthy LUMC hospital workers; commercial negative donor pooled serum from the Dutch bloodbank); type: binding, human
[3] = tested on: antibodies in sera from SARS patients (sera 1a, 1b, 2, 6, 37, 62, London, SARS-yellow, SARS-green); type: binding, human; parameters: Binding of serum 6 to linear peptides of protein X1 of SARS-CoV Urbani / Binding of serum 37 to linear peptides of protein X1 of SARS-CoV Urbani / Binding of serum 6 to looped/cyclic peptide (PEPSCAN-ELISA) / Binding of serum 37 to looped/cyclic peptide (PEPSCAN-ELISA) / Binding of serum 37 to looped/cyclic peptides of protein X1 of SARS-CoV Urbani / Binding of serum 6 to linear peptides of protein X2 / Binding of serum 37 to linear peptides of protein X2 / Binding of serum 37 to looped/cyclic peptides of protein X2 of SARS-CoV Urbani / Binding of serum 6 to linear peptides of protein M of SARS-CoV Urbani / Binding of serum 37 to linear peptides of protein M of SARS-CoV Urbani / Binding of serum 6 to looped/cyclic peptides of protein M of SARS-CoV Urbani / Binding of serum 37 to looped/cyclic peptides of protein M of SARS-CoV Urbani / Binding of serum 6 to linear peptides of protein X3 of SARS-CoV Urbani / Binding of serum 37 to linear peptides of protein X3 of SARS-CoV Urbani / Binding of serum 37 to looped/cyclic peptides of protein X3 of SARS-CoV Urbani / Binding of serum 6 to linear peptides of protein X4 of SARS-CoV Urbani / Binding of serum 37 to linear peptides of protein X4 of SARS-CoV Urbani / Binding of serum 37 to looped/cyclic peptides of protein X4 of SARS-CoV Urbani / Binding of serum 6 to linear peptides of protein X5 of SARS-CoV Urbani / Binding of serum 37 to linear peptides of protein X5 of SARS-CoV Urbani / Binding of serum 37 to looped/cyclic peptides of protein X5 of SARS-CoV Urbani / Binding of serum 6 to linear peptides of protein N of SARS-CoV Urbani / Binding of serum 37 to linear peptides of protein N of SARS-CoV Urbani / Binding of serum 6 to linear peptide (PEPSCAN-ELISA) / Binding of serum 1a to looped/cyclic peptides of protein N of SARS-CoV Urbani / Binding of serum 1b to looped/cyclic peptides of protein N of SARS-CoV Urbani / Binding of serum 2 to looped/cyclic peptides of protein N of SARS-CoV Urbani / Binding of serum 6 to looped/cyclic peptides of protein N of SARS-CoV Urbani / Binding of serum 37 to looped/cyclic peptides of protein N of SARS-CoV Urbani / Binding of serum 62 to looped/cyclic peptides of protein N of SARS-CoV Urbani / Binding of serum London to looped/cyclic peptides of protein N of SARS-CoV Urbani / Binding of serum SARS-green to looped/cyclic peptides of protein N of SARS-CoV Urbani: unit not given here
[4] = tested on: recombinant human anti-SARS-CoV antibody 03-018; type: binding; parameters: Binding of antibody 03-018 to linear peptides of the N protein of SARS-CoV Urbani / Binding of antibody 03-018 to looped/cyclic peptides of the N protein of SARS-CoV Urbani: unit not given here

Row | Sequence | Binding of a rabbit serum to linear peptides of protein N of SARS-CoV Urbani (Rabbit serum linear peptides) [1] | Binding of a rabbit serum to looped/cyclic peptides of protein N of SARS-CoV Urbani (Rabbit serum looped peptides) [1] | Control Serum Blood-Bank Looped peptides [2] | Control serum Blood-bank linear peptides [2] | Control serum LUMC linear peptides [2] | Control serum LUMC looped peptides [2] | Binding of serum 1a to linear peptides of protein N of SARS-CoV Urbani [3] | Binding of serum 1a to looped/cyclic peptides of protein N of SARS-CoV Urbani [3] | Binding of serum 1b to linear peptides of protein N of SARS-CoV Urbani [3] | Binding of serum 1b to looped/cyclic peptides of protein N of SARS-CoV Urbani [3] | Binding of serum 2 to linear peptides of protein N of SARS-CoV Urbani [3] | Binding of serum 2 to looped/cyclic peptides of protein N of SARS-CoV Urbani [3] | Binding of serum 6 to linear peptides of protein N of SARS-CoV Urbani [3] | Binding of serum 6 to looped/cyclic peptides of protein N of SARS-CoV Urbani [3] | Binding of serum 37 to linear peptides of protein N of SARS-CoV Urbani [3] | Binding of serum 37 to looped/cyclic peptides of protein N of SARS-CoV Urbani [3] | Binding of serum 62 to linear peptides of protein N of SARS-CoV Urbani [3] | Binding of serum 62 to looped/cyclic peptides of protein N of SARS-CoV Urbani [3] | Binding of serum London to linear peptides of protein N of SARS-CoV Urbani [3] | Binding of serum London to looped/cyclic peptides of protein N of SARS-CoV Urbani [3] | also measured
1 | FGMSRIGMEVTPSGT | 0.2 | 0.3 | 0.5 | 0.8 | 0.7 | 0.5 | 0.3 | 0.3 | 0.1 | 0.2 | 0.2 | 0.4 | 0.2 | 0.2 | 0.8 | 0.4 | 0.7 | 0.3 | 0.6 | 0.3 | Binding of serum SARS-green to linear peptides of protein N of SARS-CoV Urbani [3]: 0.3; Binding of serum SARS-green to looped/cyclic peptides of protein N of SARS-CoV Urbani [3]: 0.2; Binding of serum SARS-yellow to linear peptides of protein N of SARS-CoV Urbani [3]: 0.7; Binding of serum SARS-yellow to looped/cyclic peptides of protein N of SARS-CoV Urbani [3]: 0.3; Binding of antibody 03-018 to linear peptides of the N protein of SARS-CoV Urbani [4]: 0.1; Binding of antibody 03-018 to looped/cyclic peptides of the N protein of SARS-CoV Urbani [4]: 0.2
2 | FSRQLQNSMSGASAD | 0.4 | 0.1 | 0.4 | 0.7 | 0.6 | 0.2 | 0.2 | 0.2 | 0.1 | 0.1 | 0.1 | 0.2 | 0.2 | 0.1 | 0.7 | 0.4 | 0.6 | 0.2 | 0.6 | 0.2 | Binding of serum SARS-green to linear peptides of protein N of SARS-CoV Urbani [3]: 0.6; Binding of serum SARS-green to looped/cyclic peptides of protein N of SARS-CoV Urbani [3]: 0.0; Binding of serum SARS-yellow to linear peptides of protein N of SARS-CoV Urbani [3]: 0.4; Binding of serum SARS-yellow to looped/cyclic peptides of protein N of SARS-CoV Urbani [3]: 0.0; Binding of antibody 03-018 to linear peptides of the N protein of SARS-CoV Urbani [4]: 0.1; Binding of antibody 03-018 to looped/cyclic peptides of the N protein of SARS-CoV Urbani [4]: 0.2
